Measurements published in patent US6762052B1, “DNA sequence encoding flavin-containing monooxygenase” (priority 1993, dated 2004).
In brackets after ≈: the same amount, converted by molar mass. Like-named read-outs stand apart in the source and are kept apart here.

Assays:
[1] = tested on: Human Liver Microsomes; experiment: in vitro
Description: In all cases examined, product formation was directly determined by HPLC analysis of organic extracts.
Human liver samples were obtained from the Department of Surgery (UCSF) and with a protocol from the Medical College of Wisconsin (S. Wrighton).
A typical incubation mixture (final volume 0.25 ml) contained hepatic microsomes (0.4 mg of protein) or bacterial lysate (2.3 mg of protein), NADP^+ (0.5 mM), glucose-6-phosphate (2.0 mM), glucose-6-phosphate dehydrogenase (1 IU), DETAPAC (0.8 mM) and potassium phosphate buffer (50 mM, pH 8.4). Reactions were initiated by the addition of substrate and terminated at designated times by the addition of three volumes of cold dichloromethane, mixed thoroughly and centrifuged to separate the aqueous and organic fractions. N- and S-oxide metabolic products in the resulting organic extracts were separated and quantified by HPLC. […] Thiobenzamide and thiobenzamide S-oxide were quantified with this same, HPLC system employing a mobile phase of methanol/acetonitrile/60% perchloric acid (20:80:0.016, v/v) which gave retention volumes of 2.7 and 7.0 ml, respectively. […] The major metabolites formed in the incubations were also subjected to mass spectral analysis after extraction of isolated HPLC fractions.
RPLC of the S-oxide diastereomers with a Chiracel OT chiral analytical column (25 cm×0.15 cm inner diameter, Daicel Chemical Co., New York, N.Y.) was accomplished with a Beckman system, Kratos UV detector (240 nm) and a Hewlett Packard Integrator. […] Quantification was accomplished by comparing integrated HPLC peak areas after taking into account the difference in the extinction coefficients at 240 nm. Likewise, the cis and trans S-oxide diasteromers of (+)- and (−)-2-methyl-1,-benzodithiole were separated with a Chiracel OT chiral analytical column.

[2] = tested on: human FMO3-maltose binding protein (FMO3-MBP); experiment: Sequential N-oxygenation of primary amines to oximes by cDNA-expressed human FMO3-MBP; assay type: in vitro ADME
From the text: The cDNA-expressed human FMO3-maltose binding protein (FMO3-MBP) efficiently catalyzes the sequential N-oxygenation of primary amines to oximes through the intermediacy of hydroxylamines. […] In addition, formation was not dependent on autoxidation of hydroxylamines or generation of oxygen radical species. Thus, […] and O2^− had virtually no effect on the formation of oxime from the primary hydroxylamine. […] This represents a fundamental difference between FMO3 and other FMOs and indicates a use of FMO3 as a stereoselective catalyst in the formation of precious chemicals or hard to form metabolites having great stereochemical purity.

[3] = molecular target: human FMO3 (Homo sapiens, UniProt P31513); conditions: in vitro; cited from earlier work
Sequence of human FMO3 (P31513 whole entry, the tested form may be a part): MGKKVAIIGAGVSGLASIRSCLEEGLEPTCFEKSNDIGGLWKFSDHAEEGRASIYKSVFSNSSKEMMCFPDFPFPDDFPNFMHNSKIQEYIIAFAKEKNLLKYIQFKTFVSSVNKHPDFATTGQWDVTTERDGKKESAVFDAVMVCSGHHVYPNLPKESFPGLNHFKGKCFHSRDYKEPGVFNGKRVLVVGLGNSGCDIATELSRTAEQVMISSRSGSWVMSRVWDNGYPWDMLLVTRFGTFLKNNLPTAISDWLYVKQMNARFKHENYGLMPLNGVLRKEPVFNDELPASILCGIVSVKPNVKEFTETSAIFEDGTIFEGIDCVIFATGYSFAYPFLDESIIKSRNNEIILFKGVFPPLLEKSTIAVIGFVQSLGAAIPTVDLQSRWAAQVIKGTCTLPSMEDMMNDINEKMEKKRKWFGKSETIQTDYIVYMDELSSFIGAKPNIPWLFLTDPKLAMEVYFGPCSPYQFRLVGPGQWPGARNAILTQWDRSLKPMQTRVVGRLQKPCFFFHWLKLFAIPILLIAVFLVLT

[4] = molecular target: T1, lys158-HFMO3-MBP (Homo sapiens, UniProt P31513, E158K); experiment: Substrate oxygenation by lys158-HFMO3-MBP fusion protein, HPLC; conditions: Lys 158 variant
T1 sequence (P31513 2-532 E158K): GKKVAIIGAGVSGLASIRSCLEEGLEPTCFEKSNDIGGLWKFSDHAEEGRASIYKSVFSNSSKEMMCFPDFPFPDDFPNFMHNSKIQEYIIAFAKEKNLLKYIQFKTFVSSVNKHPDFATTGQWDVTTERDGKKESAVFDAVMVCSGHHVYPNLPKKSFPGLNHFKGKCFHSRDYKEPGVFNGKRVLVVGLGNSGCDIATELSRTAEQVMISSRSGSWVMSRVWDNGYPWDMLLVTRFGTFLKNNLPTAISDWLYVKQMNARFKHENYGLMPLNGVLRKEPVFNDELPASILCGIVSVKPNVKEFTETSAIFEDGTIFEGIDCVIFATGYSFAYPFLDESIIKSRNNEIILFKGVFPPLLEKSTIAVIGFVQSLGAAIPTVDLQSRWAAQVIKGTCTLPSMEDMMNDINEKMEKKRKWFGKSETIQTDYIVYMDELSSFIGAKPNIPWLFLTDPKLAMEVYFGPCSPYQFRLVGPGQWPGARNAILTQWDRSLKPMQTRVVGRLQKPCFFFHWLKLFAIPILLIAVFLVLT
Description: For HFMO3-MBP assay, all HFMO3-MBP incubations were done as follows: Into a test tube was added DETAPAC (1.2 mM, final concentration for a 250 μl reaction) followed by the addition of 60 μl NADPH generating system (0.4 mM NADP, 0.4 mM glucose-6-phosphate, and 20 μl of a 50 units mI^−1 glucose-6-phosphate dehydrogenase). The tube was chilled on ice and buffer and enzyme were added as described below for individual experiments to give a volume of 240 μl. The incubation was initiated by the addition of 5-DTP (10 μl of 5 mM) and placed in a shaking water bath at 37° C. for 10 min (unless specified otherwise). The incubation was stopped by the addition of 1.0 ml of ice-cold CH2Cl2. Following the addition of sodium carbonate (approx. 20 mg), the culture tube was vortexed, centrifuged (2000×g, 10 min), and the organic layer was removed and transferred to a 1.5 ml microfuge tube. The organic solvent was evaporated under a stream of Ar(g) to dryness and the residue was taken up in MeOH (300 μl) for determination HPLC analysis.
Data was analyzed with a Hitachi D-2500 integrator.
MTS-oxygenation assays were carried out under the same buffer, temperature, time and volume conditions, as for the N-oxygenation assays. The reactions were initiated upon addition of 10 μl of a 5 mM solution of MTS. The reaction was quenched with the addition of 700 μl of 80% CH3CN:20% hexane then 20 mg NaCl(s) and vortexed vigorously for 10 sec. The quenched reactions were then centrifuged briefly to separate the phases. The organic layer, containing product and substrate, was removed and used directly for HPLC analysis.
All other instruments used were the same as above for the N-oxygenation reactions. Conditions for elution were 50% CH3CN/H2O (v:v) with a flow rate gradient as follows: 1.5 ml min^−1 from 0 to 4 min., 1.5-2.5 ml min^−1 from 4 to 5 min, 2.5 ml min^−1 from 5 to 15 min.
Trimethylamine is commonly ingested in foodstuffs or it is available in the diet of humans from choline and other sources. Trimethylamine (TMA) is exclusively eliminated in humans by metabolism to trimethylamine N-oxide (TMANO). […] Thus, urinary TMANO formation provides a simple, reliable and direct assay of FMO3 activity in adult humans. Analysis of TMA to TMANO ratios provides a direct means of phenotyping adult humans for FMO3 activity. Phenotyping FMO3 activity in humans would provide a simple means of evaluating the relationship between the presence of FMO3 and various disease conditions. […]

[5] = normal humans, dietary sources or otherwise; cited from earlier work
[6] = tested on: NM522 E. coli; experiment: Bactericidal action / cytotoxicity in liquid culture
[7] = tested on: E. coli strains that contained FMO3 cDNA; experiment: Agar plate growth in the presence of difloxacin, strains with FMO3 cDNA; assay type: cell-based; conditions: same conditions (0.25 microgram/mL)
From the text: (§1) To validate the observations made in liquid culture, agar plate experiments were done in the presence of difloxacin with different strains streaked out containing different FMO cDNAs.

[8] = tested on: E. coli containing FMO1 cDNA plasmid; experiment: Agar plate growth in the presence of difloxacin, strain with FMO1 plasmid; assay type: cell-based; conditions: 0.25 microgram/mL
From the text: as §1

[9] = molecular target: T2, pig liver FMO form I (Sus scrofa, UniProt P16549); conditions: cited from earlier work
T2 sequence (P16549 1-532): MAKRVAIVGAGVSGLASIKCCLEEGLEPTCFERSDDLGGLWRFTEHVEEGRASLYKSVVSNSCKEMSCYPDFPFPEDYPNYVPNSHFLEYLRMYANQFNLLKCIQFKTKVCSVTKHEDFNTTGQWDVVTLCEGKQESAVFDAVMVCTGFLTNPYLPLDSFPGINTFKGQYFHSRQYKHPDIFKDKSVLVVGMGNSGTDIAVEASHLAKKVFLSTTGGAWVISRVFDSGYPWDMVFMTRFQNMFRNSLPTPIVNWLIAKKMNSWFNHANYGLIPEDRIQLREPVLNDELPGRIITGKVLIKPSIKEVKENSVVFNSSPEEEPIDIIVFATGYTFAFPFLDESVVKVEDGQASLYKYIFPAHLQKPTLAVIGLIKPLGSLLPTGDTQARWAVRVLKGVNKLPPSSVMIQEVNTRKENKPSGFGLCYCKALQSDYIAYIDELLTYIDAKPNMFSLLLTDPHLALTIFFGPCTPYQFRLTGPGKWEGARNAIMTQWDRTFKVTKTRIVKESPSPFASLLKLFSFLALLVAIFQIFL

[10] = substrate: CN(C)C; experiment: not read; conditions: other: Lys 158 variant; evaporative light scattering HPLC detection; 37.0 °C
Description: This HPLC system efficiently resolved the 5-DTP substrate from the N-oxide product with retention times of 5.30 min and 4.30 min, respectively.
MTS-oxygenation assays were carried out under the same buffer, temperature, time and volume conditions, as for the N-oxygenation assays. The reactions were initiated upon addition of 10 μl of a 5 mM solution of MTS. […]

[11] = substrate: NC(=S)c1ccccc1; experiment: cells, lysate or membranes named; conditions: other: N- or S-oxide formation; for the 4-bromophenyl-1,3-oxathiolanes formation of the trans S-oxide; pH 8.4; 37.0 °C
Description: Competent NM522 Escherichia coli cells were transformed with the pTrc HLFMO 3 plasmid. […] After inoculation with a fresh overnight culture of NM522 containing pTrcHLFMO 3, the culture was grown at 37° C. until Abs600 was approximately 0.5 absorbance units. Finally, IPTG (0.8 mM) was added to the culture to induce expression of protein and the culture was left to grow overnight at 37° C.
The bacterial pellet was resuspended in 5 volumes of 50 mM potassium phosphate buffer (pH 8.4) containing 1% Triton X-100, 0.1% L-, α-phosphatidylcholine (L-α-lecithin) from egg yolk, 500 μM PMSF, and 1 mM EDTA. The mixture was sonicated and then centrifuged to remove cellular debris. […]

CCCCCCCCNN1c2ccccc2Sc2ccc(C(F)(F)F)cc21 [10-(N-n-octylamino)-2-(trifluoromethyl)phenothiazine]
oxime formation from primary amine, product stereoselectivity [1]: stereoslectively converted to the cis oxime
oxime formation from primary amine, product stereoselectivity [2]: stereoselectively converted to the cis oxime

CN1CCC[C@H]1c1cccnc1 [(S)-nicotine]
N-1'-oxide product stereoselectivity [3]: exclusively converted to trans (S)-nicotine N-1′-oxide

CN(C)C [TMA, trimethylamine]
Vmax of N-oxygenation to TMANO [4]: 3.8 nmol of TMANO formed/min/mg of protein
dose converted to TMANO that is excreted in the urine [5]: over 95%

C[N+]1([O-])CCN(c2cc3c(cc2F)c(=O)c(C(=O)O)cn3-c2ccc(F)cc2)CC1 [difloxacin terminal tertiary amine N-oxide]
cytotoxicity ([6]; 50 or 100 micrograms per mL): not significantly cytotoxic

CN1CCN(c2cc3c(cc2F)c(=O)c(C(=O)O)cn3-c2ccc(F)cc2)CC1 [difloxacin]
sensitivity of strains containing FMO3 cDNA to the antibiotic [7]: much more sensitive
EC50 ([6]; Escherichia coli, read-out: bactericidal action EC50): ~5 µg/mL (≈ 12.5 µM)
effect of FMO1 plasmid on growth in the presence of the antibiotic [8]: conferred resistance

CN(C)CCCN1c2ccccc2CCc2ccccc21 [imipramine]
substrate activity, in words [9]: excellent substrate

NCCc1ccccc1 [phenethylamine]
oxime formation from primary amine, product stereoselectivity ([1]; adult human liver microsomes, NADPH-dependent): stereoselectively converted to trans oximes
oxime formation from primary amine, product stereoselectivity ([2]; cDNA-expressed human FMO3-MBP): stereoselectively converted to trans oximes

B1: lys158-HFMO3-MBP (Homo sapiens; E158K) (protein)
chain: GKKVAIIGAGVSGLASIRSCLEEGLEPTCFEKSNDIGGLWKFSDHAEEGRASIYKSVFSNSSKEMMCFPDFPFPDDFPNFMHNSKIQEYIIAFAKEKNLLKYIQFKTFVSSVNKHPDFATTGQWDVTTERDGKKESAVFDAVMVCSGHHVYPNLPKKSFPGLNHFKGKCFHSRDYKEPGVFNGKRVLVVGLGNSGCDIATELSRTAEQVMISSRSGSWVMSRVWDNGYPWDMLLVTRFGTFLKNNLPTAISDWLYVKQMNARFKHENYGLMPLNGVLRKEPVFNDELPASILCGIVSVKPNVKEFTETSAIFEDGTIFEGIDCVIFATGYSFAYPFLDESIIKSRNNEIILFKGVFPPLLEKSTIAVIGFVQSLGAAIPTVDLQSRWAAQVIKGTCTLPSMEDMMNDINEKMEKKRKWFGKSETIQTDYIVYMDELSSFIGAKPNIPWLFLTDPKLAMEVYFGPCSPYQFRLVGPGQWPGARNAILTQWDRSLKPMQTRVVGRLQKPCFFFHWLKLFAIPILLIAVFLVLT
Km [10]: 634 µM

B2: adult human liver flavin-containing monooxygenase (form 3) (Homo sapiens; E158K) (protein)
chain: MGKKVAIIGAGVSGLASIRSCLEEGLEPTCFEKSNDIGGLWKFSDHAEEGRASIYKSVFSNSSKEMMCFPDFPFPDDFPNFMHNSKIQEYIIAFAKEKNLLKYIQFKTFVSSVNKHPDFATTGQWDVTTERDGKKESAVFDAVMVCSGHHVYPNLPKKSFPGLNHFKGKCFHSRDYKEPGVFNGKRVLVVGLGNSGCDIATELSRTAEQVMISSRSGSWVMSRVWDNGYPWDMLLVTRFGTFLKNNLPTAISDWLYVKQMNARFKHENYGLMPLNGVLRKEPVFNDELPASILCGIVSVKPNVKEFTETSAIFEDGTIFEGIDCVIFATGYSFAYPFLDESIIKSRNNEIILFKGVFPPLLEKSTIAVIGFVQSLGAAIPTVDLQSRWAAQVIKGTCTLPSMEDMMNDINEKMEKKRKWFGKSETIQTDYIVYMDELSSFIGAKPNIPWLFLTDPKLAMEVYFGPCSPYQFRLVGPGQWPGARNAILTQWDRSLKPMQTRVVGRLQKPCFFFHWLKLFAIPILLIAVFLVLT
Km [11]: 72.6 µM
Vmax [11]: 1.44 nmol/min/mg of protein
